Assay results as given in US20230016526A1, “SYSTEM AND METHODS FOR MANIPULATION OF THE ORAL MICROBIOME IN MAMMALS” (ANIMAL MICROBIOME ANALYTICS, INC. (D/B/A ANIMALBIOME), priority 2019, published 2023).

Tested on: cat's oral microbiome
Assay: Microbial diversity metrics in sequential oral samples of a cat after a dental procedure with cefovecin sodium
Format: in vivo
Conditions: tooth extraction and cefovecin sodium; for PD Evenness: Before 0.53; for HA Evenness: Before 0.62; for PD/HA Evenness: Before 0.85; for PD/HA Diversity: Before 1.21; for PD/HA Richness: Before 1.32; for HA Diversity: Before 1.87; for PD Diversity: Before 2.26; for Pathobiont Richness: Before 3; for HA Richness: Before 31; for PD Richness: Before 41
Description: Alpha diversity metrics (Amplified Sequence Variant Richness, Shannon Diversity, and Pielou's Evenness) were calculated for a subset of periodontal disease-associated bacteria (PD) and a subset of health-associated bacteria (HA). The range for PD richness in healthy cats and dogs is 0-39. The range for health richness in healthy cats and dogs is 20-50. For comparison, oral health of each individual was also assessed by examination by a veterinary technician and or a veterinarian and observations of oral health and breath were record as shown in the table below.
Microbial diversity metrics were assessed for three sequential samples collected from a cat with advanced periodontal disease with tooth resorption prior to a dental cleaning to remove calculus, tooth extraction, and treatment with cefovecin sodium, a broad-spectrum antibiotic. Microbial diversity measures for samples collected from a cat with advanced periodontal disease with tooth resorption prior to a dental procedure that included cleaning to remove calculus, tooth extraction, and antibiotic treatment. Samples were collected by swabbing the area between the gingival sulcus and the gingival margin and were sequenced using the Illumina MiniSeq. […] At five weeks after, PD richness had increased but PD diversity had decreased, likely driven by a reduction in evenness. At five weeks after, for HA microbes, there were increases in richness, diversity, and evenness, and the PD/HA ratios for richness and diversity had decreased. Thus, this cat's oral microbiome began to show signs of recovery in a sample collected five weeks later.

[1] = Five weeks after dental cleaning
[2] = Two weeks after dental cleaning

In the case of `CO/N=C(/C(=O)N[C@@H]1C(=O)N2C(C(=O)[O-])=C([C@@H]3CCCO3)CS[C@H]12)c1csc(N)n1.[Na+]` [cefovecin sodium], the “PD Evenness” value [1] was 0.62, the “HA Evenness” value [1] was 0.58 and the “PD/HA Evenness” value [1] was 1.07. The “PD/HA Diversity” value [1] was 1.15, the “PD/HA Richness” value [1] was 0.92 and the “HA Diversity” value [1] was 1.62. For the same compound, the “PD Diversity” value [1] was 1.86, the “Pathobiont Richness” value [1] was 2 and the “HA Richness” value [1] was 25. The “PD Richness” value [1] was 23, the “PD Evenness” value [2] was 0.74 and the “HA Evenness” value [2] was 0.43. For the same compound, the “PD/HA Evenness” value [2] was 1.72, the “PD/HA Diversity” value [2] was 1.95 and the “PD/HA Richness” value [2] was 1.46. For the same compound, the “HA Diversity” value [2] was 1.11, the “PD Diversity” value [2] was 2.17 and the “Pathobiont Richness” value [2] was 2. The “HA Richness” value [2] was 13 and the “PD Richness” value [2] was 19.
